Measurements reported in US20230416228A1 (Forkhead Biotherapeutics, Inc., priority 2020, published 2023).

The molecules below were run against T1, human FOXO1 (constitutively active form Thr24Ala, Ser256Ala, Ser319Ala) (Homo sapiens, UniProt Q12778, S256A/S319A/T24A) (assay: FOXO1 inhibitor activity assay: cell-based transcriptional (luciferase) reporter assay in HEK293 cells). Conditions: HEK293 cells transfected with insulin response element firefly luciferase reporter, FOXO1 and Renilla luciferase; 10-point dose response 50 μM to 2.5 nM; 24 hours.
T1 construct: expressed in transfected cells; host or cells: HEK293 cells transfected with pcDNA3.1 plasmid
T1 sequence (Q12778 whole entry T24A/S256A/S319A): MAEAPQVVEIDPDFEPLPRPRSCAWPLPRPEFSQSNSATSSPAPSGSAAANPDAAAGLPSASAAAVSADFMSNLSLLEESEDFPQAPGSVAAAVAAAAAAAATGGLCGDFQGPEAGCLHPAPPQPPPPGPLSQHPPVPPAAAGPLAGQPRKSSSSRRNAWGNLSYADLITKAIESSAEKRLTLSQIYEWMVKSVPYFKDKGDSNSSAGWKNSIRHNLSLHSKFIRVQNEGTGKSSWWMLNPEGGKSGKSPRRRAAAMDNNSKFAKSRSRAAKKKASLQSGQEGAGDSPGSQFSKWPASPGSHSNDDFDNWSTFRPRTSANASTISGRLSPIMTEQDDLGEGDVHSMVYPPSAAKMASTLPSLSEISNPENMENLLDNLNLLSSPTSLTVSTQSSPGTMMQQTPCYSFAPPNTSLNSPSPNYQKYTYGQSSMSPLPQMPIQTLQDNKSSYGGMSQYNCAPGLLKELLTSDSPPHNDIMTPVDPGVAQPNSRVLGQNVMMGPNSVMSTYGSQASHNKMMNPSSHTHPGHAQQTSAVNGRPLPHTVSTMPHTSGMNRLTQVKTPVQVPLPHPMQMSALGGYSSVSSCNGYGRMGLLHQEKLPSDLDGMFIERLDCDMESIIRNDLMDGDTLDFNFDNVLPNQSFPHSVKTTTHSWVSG
Method: The inhibitory activities of compounds on FOXO1 were determined by a cell-based transcriptional reporter assay. HEK293 cells were plated onto either 384-well poly-D-lysine coated plates (at 7500 cells per well) or 96-well plates (at 20000 cells per well) in low glucose Eagle's Minimum Essential Medium (EMEM) containing 1% fetal bovine serum, and incubated overnight at 37° C. and 5% CO2. […] Duplicate wells were included for each treatment condition. Cells were incubated for 24 hours at 37° C. and 5% CO2. Luciferase activities in each well were measured using Dual-Glog Luciferase Assay System (Promega) according to manufacturer's protocol and an Envision plate reader suitable for luminescence detection. Firefly luciferase activity was divided by Renilla luciferase activity to calculate a ratio for each well. The ratio in wells containing cells transfected with all 3 plasmids listed above and receiving only DMSO without compound addition was set to 100%. The ratio in wells containing cells transfected with plasmid (1), plasmid (3), and pcDNA3.1 containing the open reading frame of red fluorescent protein (instead of human FOXO1) and treated with DMSO was set to 0%. The ratio in each well receiving compound treatment was normalized and expressed as a percentage. Data were fit by 4-parameter logistic regression to determine IC50 and maximal inhibition values. Each compound was tested in a minimum of 2 independent experiments.

| SMILES | IC50 |
| --- | --- |
| COCCSc1ccc(C(=O)Nc2cc(-c3nc4ccccc4[nH]3)[nH]n2)cc1Cl [Compound A-93, N-[5-(1H-benzimidazol-2-yl)-1H-pyrazol-3-yl]-3-chloro-4-(2-methoxyethylsulfanyl)benzamide] | < 100 nM |
| Cn1nc(NC(=O)c2ccc(N3CCOCC3)cc2)cc1-c1nc2ccccc2[nH]1 [Compound A-95, N-[5-(1H-benzimidazol-2-yl)-1-methyl-pyrazol-3-yl]-4-morpholino-benzamide] | 100 to 300 nM |
| COC1CN(c2ccc(C(=O)Nc3cc(-c4nc5ccccc5[nH]4)n(C)n3)cn2)C1 [Compound A-97, N-[5-(1H-benzimidazol-2-yl)-1-methyl-pyrazol-3-yl]-6-(3-methoxyazetidin-1-yl)pyridine-3-carboxamide] | 100 to 300 nM |
| Cc1ccc2[nH]c(-c3cc(NC(=O)c4ccc(N5CCC(O)CC5)nc4)n[nH]3)nc2c1 [Compound A-99, 6-(4-hydroxy-1-piperidyl)-N-[5-(5-methyl-1H-benzimidazol-2-yl)-1H-pyrazol-3-yl]pyridine-3-carboxamide] | 100 to 300 nM |
| Cc1ccc2[nH]c(-c3cc(NC(=O)c4ccc(N5CCOCC5)nc4)n[nH]3)nc2c1 [Compound A-100, N-[5-(5-methyl-1H-benzimidazol-2-yl)-1H-pyrazol-3-yl]-6-morpholino-pyridine-3-carboxamide] | 100 to 300 nM |
| O=C(Nc1cc(-c2nc3cc(C(F)(F)F)ccc3[nH]2)[nH]n1)c1ccc(N2CCC(CO)CC2)nc1 [Compound A-101, 6-[4-(hydroxymethyl)-1-piperidyl]-N-[5-[5-(trifluoromethyl)-1H-benzimidazol-2-yl]-1H-pyrazol-3-yl]pyridine-3-carboxamide] | > 1000 nM |
| COCCOc1ccc(C(=O)Nc2cc(-c3nc4ccccc4[nH]3)[nH]n2)cc1F [Compound A-103, N-[5-(1H-benzimidazol-2-yl)-1H-pyrazol-3-yl]-3-fluoro-4-(2-methoxy-ethoxy)benzamide] | < 100 nM |
| COCCOc1ccc(C(=O)Nc2cc(-c3nc4ccccc4[nH]3)[nH]n2)cc1C(F)(F)F [Compound A-104, N-[5-(1H-benzimidazol-2-yl)-1H-pyrazol-3-yl]-4-(2-methoxyethoxy)-3-(trifluoromethyl)benzamide] | < 100 nM |
| O=C(Nc1cc(-c2nc3cc(C(F)(F)F)ccc3[nH]2)[nH]n1)c1ccc(N2CCC(O)CC2)nc1 [Compound A-105, 6-(4-hydroxy-1-piperidyl)-N-[5-[5-(trifluoromethyl)-1H-benzimidazol-2-yl]-1H-pyrazol-3-yl]pyridine-3-carboxamide] | > 1000 nM |
| COc1ccc(C(=O)Nc2cc(-c3nc4ccc(OC)c(F)c4[nH]3)[nH]n2)cc1Cl [Compound A-106, 3-chloro-N-[5-(7-fluoro-6-methoxy-1H-benzimidazol-2-yl)-1H-pyrazol-3-yl]-4-methoxy-benzamide] | 100 to 300 nM |
| O=C(Nc1cc(-c2nc3cc(OC(F)(F)F)ccc3[nH]2)[nH]n1)c1ccc(N2CCOCC2)nc1 [Compound A-107, 6-morpholino-N-[5-[5-(trifluoromethoxy)-1H-benzimidazol-2-yl]-1H-pyrazol-3-yl]pyridine-3-carboxamide] | > 1000 nM |
| COc1ccc2[nH]c(-c3cc(NC(=O)c4ccc(N5CCC(CO)CC5)nc4)n[nH]3)nc2c1 [Compound A-109, 6-[4-(hydroxymethyl)-1-piperidyl]-N-[5-(5-methoxy-1H-benzimidazol-2-yl)-1H-pyrazol-3-yl]pyridine-3-carboxamide] | < 100 nM |
| COc1ccc2[nH]c(-c3cc(NC(=O)c4ccc(N5CCOCC5)nc4)n[nH]3)nc2c1 [Compound A-111, N-[5-(5-methoxy-1H-benzimidazol-2-yl)-1H-pyrazol-3-yl]-6-morpholino-pyridine-3-carboxamide] | > 1000 nM |
| COc1ccc(C(=O)Nc2cc(-c3cn4ccccc4n3)[nH]n2)cc1Cl [Compound A-112, 3-chloro-N-(5-imidazo[1,2-a]pyridin-2-yl-1H-pyrazol-3-yl)-4-methoxy-benzamide] | 300 to 1000 nM |
| Cc1cc(C(=O)Nc2cc(-c3nc4ccccc4[nH]3)[nH]n2)ccc1OCCO [Compound A-113, N-[5-(1H-benzimidazol-2-yl)-1H-pyrazol-3-yl]-4-(2-hydroxyethoxy)-3-methyl-benzamide] | < 100 nM |
| O=C(Nc1cc(-c2nc3cc(OC(F)(F)F)ccc3[nH]2)[nH]n1)c1ccc(OCCO)c(Cl)c1 [Compound A-116, 3-chloro-4-(2-hydroxyethoxy)-N-[5-[5-(trifluoromethoxy)-1H-benzimidazol-2-yl]-1H-pyrazol-3-yl]benzamide] | 100 to 300 nM |
| COc1ccc2[nH]c(-c3cc(NC(=O)c4ccc(OCCO)c(Cl)c4)n[nH]3)nc2c1 [Compound A-117, 3-chloro-4-(2-hydroxyethoxy)-N-[5-(5-methoxy-1H-benzimidazol-2-yl)-1H-pyrazol-3-yl]benzamide formic acid] | < 100 nM |
| O=C(Nc1cc(-c2nc3cccc(F)c3[nH]2)[nH]n1)c1ccc(OCCO)c(Cl)c1 [Compound A-119, 3-chloro-N-[5-(7-fluoro-1H-benzimidazol-2-yl)-1H-pyrazol-3-yl]-4-(2-hydroxyethoxy)benzamide] | 100 to 300 nM |
| O=C(Nc1cc(-c2nc3cc(Cl)ccc3[nH]2)[nH]n1)c1ccc(OCCO)c(Cl)c1 [Compound A-121, 3-chloro-N-[5-(5-chloro-1H-benzimidazol-2-yl)-1H-pyrazol-3-yl]-4-(2-hydroxyethoxy)benzamide] | 100 to 300 nM |
| O=C(Nc1cc(-c2nc3cc(C(F)(F)F)ccc3[nH]2)[nH]n1)c1ccc(OCCO)c(Cl)c1 [Compound A-123, 3-chloro-4-(2-hydroxyethoxy)-N-[5-[5-(trifluoromethyl)-1H-benzimidazol-2-yl]-1H-pyrazol-3-yl]benzamide formic acid] | < 100 nM |
| COc1ccc(C(=O)Nc2cc(-c3nc4ccccc4[nH]3)[nH]n2)cc1F [Compound A-124, N-[5-(1H-benzimidazol-2-yl)-1H-pyrazol-3-yl]-3-fluoro-4-methoxy-benzamide] | < 100 nM |

Continued, values first:

| IC50 | SMILES |
| --- | --- |
| > 1000 nM | COc1ccc(Nc2nccc(-c3nc4ccccc4[nH]3)n2)cc1Cl [Compound A-92, 4-(1H-benzimidazol-2-yl)-N-(3-chloro-4-methoxy-phenyl)pyrimidin-2-amine] |
| < 100 nM | COCCOc1ccc(C(=O)Nc2cc(-c3nc4ccccc4[nH]3)[nH]n2)cc1C [Compound A-94, N-[5-(1H-benzimidazol-2-yl)-1H-pyrazol-3-yl]-4-(2-methoxyethoxy)-3-methyl-benzamide] |
| < 100 nM | Cn1nc(NC(=O)c2ccc(N3CCC(CO)CC3)nc2)cc1-c1nc2ccccc2[nH]1 [Compound A-96, N-[5-(1H-benzimidazol-2-yl)-1-methyl-pyrazol-3-yl]-6-[4-(hydroxy-methyl)-1-piperidyl]pyridine-3-carboxamide] |
| < 100 nM | Cc1ccc2[nH]c(-c3cc(NC(=O)c4ccc(N5CCC(CO)CC5)nc4)n[nH]3)nc2c1 [Compound A-98, 6-[4-(hydroxymethyl)-1-piperidyl]-N-[5-(5-methyl-1H-benzimidazol-2-yl)-1H-pyrazol-3-yl]pyridine-3-carboxamide] |
| > 1000 nM | O=C(Nc1cc(-c2nc3cc(C(F)(F)F)ccc3[nH]2)[nH]n1)c1ccc(N2CCOCC2)nc1 [Compound A-102, 6-morpholino-N-[5-[5-(trifluoromethyl)-1H-benzimidazol-2-yl]-1H-pyrazol-3-yl]pyridine-3-carboxamide] |
| > 1000 nM | O=C(Nc1cc(-c2nc3cc(OC(F)(F)F)ccc3[nH]2)[nH]n1)c1ccc(N2CCC(O)CC2)nc1 [Compound A-108, 6-(4-hydroxy-1-piperidyl)-N-[5-[5-(trifluoromethoxy)-1H-benzimidazol-2-yl]-1H-pyrazol-3-yl]pyridine-3-carboxamide] |
| > 1000 nM | O=C(Nc1cc(-c2nc3cc(OC(F)(F)F)ccc3[nH]2)[nH]n1)c1ccc(N2CCC(CO)CC2)nc1 [Compound A-114, 6-[4-(hydroxymethyl)-1-piperidyl]-N-[5-[5-(trifluoromethoxy)-1H-benzimidazol-2-yl]-1H-pyrazol-3-yl]pyridine-3-carboxamide] |
| < 100 nM | Cc1ccc2[nH]c(-c3cc(NC(=O)c4ccc(OCCO)c(Cl)c4)n[nH]3)nc2c1 [Compound A-115, 3-chloro-4-(2-hydroxyethoxy)-N-[5-(5-methyl-1H-benzimidazol-2-yl)-1H-pyrazol-3-yl]benzamide] |
| 300 to 1000 nM | O=C(Nc1cc(-c2nc3cc(Br)ccc3[nH]2)[nH]n1)c1ccc(OCCO)c(Cl)c1 [Compound A-118, N-[5-(5-bromo-1H-benzimidazol-2-yl)-1H-pyrazol-3-yl]-3-chloro-4-(2-hydroxyethoxy)benzamide] |
| 300 to 1000 nM | COc1cc(C(=O)Nc2cc(-c3nc4ccccc4[nH]3)[nH]n2)ccc1OCCO [Compound A-120, N-[5-(1H-benzimidazol-2-yl)-1H-pyrazol-3-yl]-4-(2-hydroxyethoxy)-3-methoxy-benzamide] |
| 100 to 300 nM | COc1ccc(C(=O)Nc2cc(-c3nc4cccc(F)c4[nH]3)n(C)n2)cc1Cl [Compound A-125, 3-chloro-N-[5-(7-fluoro-1H-benzimidazol-2-yl)-1-methyl-pyrazol-3-yl]-4-methoxy-benzamide] |
